Values quoted from earlier work in US11406718B2, “Methods of detecting pancreobiliary ductal leaks” (CHIRHOCLIN, INC., priority 2012, dated 2022).
No end group written: not given here.

Substance: human secretin
- serious adverse drug reactions (human secretin stimulation): There has not been any serious reported adverse drug reaction
- adverse reaction seen rarely (thousands of patients in pancreobiliary function testing with human secretin): flushing of the face with stable vital signs

Substance: secretin (HSDGTFTSELSRLRDSARLQRLLQGLV; ends and bridges not checked; UniProt P63298 33-59, looked up) [3055.5 MW (27 amino acid) gastrointestinal peptide hormone originally extracted from the porcine duodenum]
- allergic reactions (human, in vivo): No allergic reactions have been reported
- dose safely given (human, in vivo): 0.78 µg/kg
- hemodynamic effects (human, in vivo): No significant hemodynamic effects have been observed
- largest dose administered in a study, found safe (human, in vivo): 160 µg
- risk of acute pancreatitis episodes (human, in vivo): not known to increase the risk of acute pancreatitis episodes
- effect on pancreatic duct diameter (pancreas; in vivo): increases the pancreatic duct diameter
- effect on sphincter of Oddi (pancreas; in vivo): causes sphincter of Oddi relaxation
- effect on pancreatic juice (pancreas; primary action): increase the volume and bicarbonate content of pancreatic juice
